Source: patent US20200354426A1 (MEDIMMUNE LIMITED, priority 2016, published 2020)
“And” between values parts separate entries of the source, which are not always exact repeats. Equal values may be shown once. Numbered stars: 1 amine (or outer) side, 2 acyl side, 3 side chain; on linkers, the order of the positions; unused ones are H or OH. Side chains are listed from the residue outwards. Ends that are not written are not given here. Peptide text beside a SMILES is read from it. * marks the point of attachment. γGlu = O=C(O)[C@H](CCC(=O)[*:2])N[*:1]; Palmitoyl = CCCCCCCCCCCCCCCC(=O)*

Assays:
Assay in all cases: cAMP activity assay in assay medium (assay 1)
Assay type in all cases: cell-based
[1] = biological target: Human GLP1R (Homo sapiens, UniProt P43220); design: expressed in transfected cells; conditions: assay medium; Table 4; read-out: hGLP1R EC50
Source text: (§1) Biological Activity of Peptides in Cell-Based cAMP Activity Assay (Assay 1):
(§2) All sample dilutions were made in duplicate.

[2] = biological target: T1, Human GIPr (Homo sapiens, UniProt P48546); conditions: assay medium; Table 4; read-out: hGIPR EC50
T1 construct: expressed in transfected cells
T1 sequence (P48546 22-466): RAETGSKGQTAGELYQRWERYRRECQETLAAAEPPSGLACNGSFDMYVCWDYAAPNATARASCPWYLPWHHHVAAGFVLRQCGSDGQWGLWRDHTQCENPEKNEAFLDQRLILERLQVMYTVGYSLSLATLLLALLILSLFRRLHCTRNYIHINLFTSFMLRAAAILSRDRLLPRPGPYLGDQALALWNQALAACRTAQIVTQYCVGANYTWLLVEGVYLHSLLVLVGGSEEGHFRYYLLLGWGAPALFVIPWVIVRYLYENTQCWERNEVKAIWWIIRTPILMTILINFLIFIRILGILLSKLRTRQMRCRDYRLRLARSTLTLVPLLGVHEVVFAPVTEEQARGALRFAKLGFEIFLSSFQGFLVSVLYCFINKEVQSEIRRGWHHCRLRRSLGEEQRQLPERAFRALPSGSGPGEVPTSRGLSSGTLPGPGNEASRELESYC
Source text: as §1, §2

[3] = biological target: T2, Human GlucR (Homo sapiens, UniProt P47871); conditions: assay medium; Table 4; read-out: hGlucR EC50
T2 construct: expressed in transfected cells
Source text: as §1, §2

Human GLP1R, sequence (P43220 24-463): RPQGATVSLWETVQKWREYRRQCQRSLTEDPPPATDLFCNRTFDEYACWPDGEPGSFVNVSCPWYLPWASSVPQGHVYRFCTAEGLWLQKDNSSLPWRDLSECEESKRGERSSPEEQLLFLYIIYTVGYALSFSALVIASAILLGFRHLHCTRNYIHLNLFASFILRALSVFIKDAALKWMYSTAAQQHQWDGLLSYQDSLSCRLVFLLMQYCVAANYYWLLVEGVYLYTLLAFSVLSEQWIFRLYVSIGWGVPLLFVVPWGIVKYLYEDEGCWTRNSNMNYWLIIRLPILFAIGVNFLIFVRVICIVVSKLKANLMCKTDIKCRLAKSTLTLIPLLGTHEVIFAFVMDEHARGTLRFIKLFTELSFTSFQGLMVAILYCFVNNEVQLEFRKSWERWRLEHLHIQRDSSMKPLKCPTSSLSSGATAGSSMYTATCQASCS
T2 sequence (P47871 26-477): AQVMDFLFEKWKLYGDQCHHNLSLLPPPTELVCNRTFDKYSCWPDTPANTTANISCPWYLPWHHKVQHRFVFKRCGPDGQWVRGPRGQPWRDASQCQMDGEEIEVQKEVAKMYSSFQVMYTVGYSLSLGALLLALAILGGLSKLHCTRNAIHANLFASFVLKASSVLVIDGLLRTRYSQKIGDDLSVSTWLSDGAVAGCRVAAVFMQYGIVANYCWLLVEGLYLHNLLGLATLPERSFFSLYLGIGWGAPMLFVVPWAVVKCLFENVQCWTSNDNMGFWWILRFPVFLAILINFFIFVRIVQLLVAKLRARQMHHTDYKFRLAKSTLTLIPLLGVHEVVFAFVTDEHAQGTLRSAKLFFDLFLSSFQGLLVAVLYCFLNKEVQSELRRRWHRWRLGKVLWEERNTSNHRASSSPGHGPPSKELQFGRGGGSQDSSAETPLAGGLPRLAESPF

Row | Molecule | EC50 [1] | EC50 [2] | EC50 [3]
1 | CCCCCCCCCCCCCCCC(=O)N[C@@H](CCC(=O)NCCCC[C@H](NC(=O)[C@H](Cc1ccc(O)cc1)NC(=O)[C@H](CCC(=O)O)NC(=O)[C@H](CO)NC(=O)[C@H](Cc1ccc(O)cc1)NC(=O)[C@H](CC(=O)O)NC(=O)[C@H](CO)NC(=O)[C@@H](NC(=O)[C@H](Cc1ccccc1)NC(=O)[C@@H](NC(=O)CNC(=O)[C@H](CCC(N)=O)NC(=O)[C@H](CO)NC(=O)[C@@H](N)Cc1c[nH]cn1)[C@@H](C)O)[C@@H](C)O)C(=O)N[C@@H](CC(=O)O)C(=O)N[C@@H](CO)C(=O)N[C@@H](CCC(=O)O)C(=O)N[C@@H](CCCNC(=N)N)C(=O)N[C@@H](C)C(=O)N[C@@H](CCCNC(=N)N)C(=O)N[C@@H](CC(=O)O)C(=O)N[C@@H](Cc1ccccc1)C(=O)N[C@H](C(=O)N[C@@H](C)C(=O)N[C@@H](Cc1c[nH]c2ccccc12)C(=O)N[C@@H](CC(C)C)C(=O)N[C@H](C(=O)N[C@@H](C)C(=O)NCC(=O)NCC(N)=O)C(C)C)C(C)C)C(=O)O [g846] (H-HSQGTFTSDYSEYK([γGlu-Palmitoyl])DSERARDFVAWLVAGG-NH2; N-terminus assumed) | 0.0438 nM | 11.8 nM | 0.0341 nM
2 | CCCCCCCCCCCCCCCC(=O)N[C@@H](CCC(=O)NCCCC[C@H](NC(=O)[C@H](CO)NC(=O)[C@H](CC(=O)O)NC(=O)[C@H](CC(C)C)NC(=O)[C@H](Cc1ccc(O)cc1)NC(=O)[C@H](CCC(=O)O)NC(=O)[C@H](CO)NC(=O)[C@H](Cc1ccc(O)cc1)NC(=O)[C@H](CC(=O)O)NC(=O)[C@H](CO)NC(=O)[C@@H](NC(=O)[C@H](Cc1ccccc1)NC(=O)[C@@H](NC(=O)CNC(=O)[C@H](CCC(N)=O)NC(=O)[C@H](CO)NC(=O)[C@@H](N)Cc1c[nH]cn1)[C@@H](C)O)[C@@H](C)O)C(=O)N[C@@H](CCCNC(=N)N)C(=O)N[C@@H](C)C(=O)N[C@@H](CCCNC(=N)N)C(=O)N[C@@H](CC(=O)O)C(=O)N[C@@H](Cc1ccccc1)C(=O)N[C@H](C(=O)N[C@@H](C)C(=O)N[C@@H](Cc1c[nH]c2ccccc12)C(=O)N[C@@H](CC(C)C)C(=O)N[C@@H](CCC(=O)O)C(=O)N[C@@H](CCCNC(=N)N)C(=O)NCC(=O)NCC(N)=O)C(C)C)C(=O)O [g772] (H-HSQGTFTSDYSEYLDSK([γGlu-Palmitoyl])RARDFVAWLERGG-NH2; N-terminus assumed) | 0.292 nM | 1540 nM | 0.184 nM
3 | CCCCCCCCCCCCCCCC(=O)N[C@@H](CCC(=O)NCCCC[C@H](NC(=O)CNC(=O)CNC(=O)[C@H](C)NC(=O)[C@H](CCC(=O)O)NC(=O)[C@H](CC(C)C)NC(=O)[C@H](Cc1c[nH]c2ccccc12)NC(=O)[C@H](CCC(N)=O)NC(=O)[C@@H](NC(=O)[C@H](Cc1ccccc1)NC(=O)[C@H](CC(=O)O)NC(=O)[C@H](CCC(N)=O)NC(=O)[C@H](C)NC(=O)[C@H](CCCNC(=N)N)NC(=O)[C@H](CCCNC(=N)N)NC(=O)[C@H](CO)NC(=O)[C@H](CC(=O)O)NC(=O)[C@H](CC(C)C)NC(=O)[C@H](Cc1ccc(O)cc1)NC(=O)[C@H](CCCCN)NC(=O)[C@H](CO)NC(=O)[C@H](Cc1ccc(O)cc1)NC(=O)[C@H](CC(=O)O)NC(=O)[C@H](CO)NC(=O)[C@@H](NC(=O)[C@H](Cc1ccccc1)NC(=O)[C@@H](NC(=O)CNC(=O)[C@H](CCC(N)=O)NC(=O)[C@H](CO)NC(=O)[C@@H](N)Cc1c[nH]cn1)[C@@H](C)O)[C@@H](C)O)C(C)C)C(N)=O)C(=O)O [g747] | 3.16 nM | 1040 nM | 0.0942 nM
4 | HSQGTFTSDYSKYLDSERARDFVAWLEAGG-NH2 [g840] | 0.145 nM | 102 nM | 0.0053 nM
5 | CCCCCCCCCCCCCCCC(=O)N[C@@H](CCC(=O)NCCCC[C@H](NC(=O)[C@H](CO)NC(=O)[C@H](CC(=O)O)NC(=O)[C@H](CC(C)C)NC(=O)[C@H](Cc1ccc(O)cc1)NC(=O)[C@H](CCCCN)NC(=O)[C@H](CO)NC(=O)[C@H](Cc1ccc(O)cc1)NC(=O)[C@H](CC(=O)O)NC(=O)[C@H](CO)NC(=O)[C@@H](NC(=O)[C@H](Cc1ccccc1)NC(=O)[C@@H](NC(=O)CNC(=O)[C@H](CCC(N)=O)NC(=O)[C@H](CO)NC(=O)[C@@H](N)Cc1c[nH]cn1)[C@@H](C)O)[C@@H](C)O)C(=O)N[C@@H](CCCNC(=N)N)C(=O)N[C@@H](C)C(=O)N[C@@H](CCC(N)=O)C(=O)N[C@@H](CC(=O)O)C(=O)N[C@@H](Cc1ccccc1)C(=O)N[C@H](C(=O)N[C@@H](CCC(N)=O)C(=O)N[C@@H](Cc1c[nH]c2ccccc12)C(=O)N[C@@H](CC(C)C)C(=O)N[C@H](C(=O)N[C@@H](C)C(=O)NCC(=O)NCC(N)=O)C(C)C)C(C)C)C(=O)O [g335] | 0.0733 nM | 582 nM | 0.0105 nM
6 | CCCCCCCCCCCCCCCC(=O)N[C@@H](CCC(=O)NCCCC[C@H](NC(=O)[C@H](CO)NC(=O)[C@H](CC(=O)O)NC(=O)[C@H](CC(C)C)NC(=O)[C@H](Cc1ccc(O)cc1)NC(=O)[C@H](CCCCN)NC(=O)[C@H](CO)NC(=O)[C@H](Cc1ccc(O)cc1)NC(=O)[C@H](CC(=O)O)NC(=O)[C@H](CO)NC(=O)[C@@H](NC(=O)[C@H](Cc1ccccc1)NC(=O)[C@@H](NC(=O)CNC(=O)[C@H](CCC(N)=O)NC(=O)[C@H](CO)NC(=O)[C@@H](N)Cc1c[nH]cn1)[C@@H](C)O)[C@@H](C)O)C(=O)N[C@@H](CCCNC(=N)N)C(=O)N[C@@H](C)C(=O)N[C@@H](CCC(N)=O)C(=O)N[C@@H](CC(=O)O)C(=O)N[C@@H](Cc1ccccc1)C(=O)N[C@H](C(=O)N[C@@H](CCC(=O)O)C(=O)N[C@@H](Cc1c[nH]c2ccccc12)C(=O)N[C@@H](CC(C)C)C(=O)N[C@H](C(=O)N[C@@H](C)C(=O)NCC(=O)NCC(N)=O)C(C)C)C(C)C)C(=O)O [g600] (H-HSQGTFTSDYSKYLDSK([γGlu-Palmitoyl])RAQDFVEWLVAGG-NH2; N-terminus assumed) | 0.0666 nM | 124 nM and 82.8 nM | 0.00547 nM
7 | CCCCCCCCCCCCCCCC(=O)NCCCC[C@H](NC(=O)[C@H](C)NC(=O)[C@@H](NC(=O)[C@H](CC(N)=O)NC(=O)[C@H](CC(N)=O)NC(=O)[C@H](CCCNC(=N)N)NC(=O)[C@H](CC(N)=O)NC(=O)[C@H](CC(N)=O)NC(=O)[C@H](CCCCN)NC(=O)CNC(=O)CNC(=O)[C@H](CCCNC(=N)N)NC(=O)[C@@H](NC(=O)[C@H](CC(C)C)NC(=O)[C@H](Cc1c[nH]c2ccccc12)NC(=O)[C@H](CCC(N)=O)NC(=O)[C@@H](NC(=O)[C@H](Cc1ccccc1)NC(=O)[C@H](CC(=O)O)NC(=O)[C@H](CCC(N)=O)NC(=O)[C@H](C)NC(=O)[C@H](CCCNC(=N)N)NC(=O)[C@H](CCCNC(=N)N)NC(=O)[C@H](CO)NC(=O)[C@H](CC(=O)O)NC(=O)[C@H](CC(C)C)NC(=O)[C@H](Cc1ccc(O)cc1)NC(=O)[C@H](CCCCN)NC(=O)[C@H](CO)NC(=O)[C@H](Cc1ccc(O)cc1)NC(=O)[C@H](CC(=O)O)NC(=O)[C@H](CO)NC(=O)[C@@H](NC(=O)[C@H](Cc1ccccc1)NC(=O)[C@@H](NC(=O)CNC(=O)[C@H](CCC(N)=O)NC(=O)[C@H](CO)NC(=O)[C@@H](N)Cc1c[nH]cn1)[C@@H](C)O)[C@@H](C)O)C(C)C)C(C)C)[C@@H](C)CC)C(N)=O [g322] (H-HSQGTFTSDYSKYLDSRRAQDFVQWLVRGGKNNRNNIAK(Palmitoyl)-NH2; N-terminus assumed) | 0.0106 nM | 1.72 nM | 0.00355 nM
8 | CCCCCCCCCCCCCCCC(=O)N[C@@H](CCC(=O)NCCCC[C@H](NC(=O)[C@H](CCCNC(=N)N)NC(=O)[C@H](CO)NC(=O)[C@H](Cc1ccc(O)cc1)NC(=O)[C@H](CC(=O)O)NC(=O)[C@H](CO)NC(=O)[C@@H](NC(=O)[C@H](Cc1ccccc1)NC(=O)[C@@H](NC(=O)CNC(=O)[C@H](CCC(N)=O)NC(=O)[C@H](CO)NC(=O)[C@@H](N)Cc1c[nH]cn1)[C@@H](C)O)[C@@H](C)O)C(=O)N[C@@H](CC(C)C)C(=O)N[C@@H](CC(=O)O)C(=O)N[C@@H](CO)C(=O)N[C@@H](CCC(=O)O)C(=O)N[C@@H](CCCNC(=N)N)C(=O)N[C@@H](C)C(=O)N[C@@H](CCCNC(=N)N)C(=O)N[C@@H](CC(=O)O)C(=O)N[C@@H](Cc1ccccc1)C(=O)N[C@H](C(=O)N[C@@H](C)C(=O)N[C@@H](Cc1c[nH]c2ccccc12)C(=O)N[C@@H](CC(C)C)C(=O)N[C@H](C(=O)N[C@@H](C)C(=O)NCC(=O)NCC(N)=O)C(C)C)C(C)C)C(=O)O [g820] (H-HSQGTFTSDYSRK([γGlu-Palmitoyl])LDSERARDFVAWLVAGG-NH2; N-terminus assumed) | 0.0339 nM | 71.1 nM | 0.0117 nM
9 | CCCCCCCCCCCCCCCC(=O)N[C@@H](CCC(=O)NCCCC[C@H](NC(=O)[C@H](CC(=O)O)NC(=O)[C@H](CC(C)C)NC(=O)[C@H](Cc1ccc(O)cc1)NC(=O)[C@H](CCCCN)NC(=O)[C@H](CO)NC(=O)[C@H](Cc1ccc(O)cc1)NC(=O)[C@H](CC(=O)O)NC(=O)[C@H](CO)NC(=O)[C@@H](NC(=O)[C@H](Cc1ccccc1)NC(=O)[C@@H](NC(=O)CNC(=O)[C@H](CCC(N)=O)NC(=O)[C@H](CO)NC(=O)[C@@H](N)Cc1c[nH]cn1)[C@@H](C)O)[C@@H](C)O)C(=O)N[C@@H](CCCNC(=N)N)C(=O)N[C@@H](CCCNC(=N)N)C(=O)N[C@@H](C)C(=O)N[C@@H](CCCNC(=N)N)C(=O)N[C@@H](CC(=O)O)C(=O)N[C@@H](Cc1ccccc1)C(=O)N[C@H](C(=O)N[C@@H](C)C(=O)N[C@@H](Cc1c[nH]c2ccccc12)C(=O)N[C@@H](CC(C)C)C(=O)N[C@@H](CCC(=O)O)C(=O)N[C@@H](C)C(=O)NCC(=O)NCC(N)=O)C(C)C)C(=O)O [g781] (H-HSQGTFTSDYSKYLDK([γGlu-Palmitoyl])RRARDFVAWLEAGG-NH2; N-terminus assumed) | 0.104 nM | 402 nM | 0.00285 nM
